Assays:
[1] = tested on: cytochrome c release in S. mansoni (Puerto Rican strain) worms; test: Western blot of cytosolic cytochrome c in worm extracts; format: cell-based, Schistosoma mansoni; settings: 25 μM, 48 h (legend of Figure 5)
Experimental: To determine if the Sirt2 inhibitors trigger apoptosis through the cytochrome c pathway, we examined cytochrome c release from mitochondria.
5 Effects of selected Sirt2 inhibitors on cytosolic cytochrome c expression. Representative immunoblots of cytosolic protein fractions extracted from S. mansoni adult worm pairs are shown. The worms were treated with the indicated Sirt2 inhibitors (10 μM) for 48 h. DMSO (vehicle), TSA (1 μM, 24 h), a HDAC pan-inhibitor, and salermide (Sal 25 μM, 48 h), a Sirt1/Sirt2 inhibitor, were used as controls. The α-tubulin signal was used for normalization. Quantitation of cytochrome c relative to the vehicle-treated sample is shown.
Ten pairs of adult parasites were treated with selected Sirt inhibitors for either 24 or 48 h at partially lethal and sublethal concentrations. The concentrations of compounds were chosen based on the viability curve. Positive controls in the experiments included TSA, a pan-HDAC inhibitor, and salermide, a hSirt1/2 inhibitor, while DMSO (vehicle) served as negative control. Parasites were lysed in a 0.5% Triton PBS buffer by strokes, and the lysates were then centrifuged to collect the soluble fractions (cytosol). The insoluble fractions were extracted with 0.25 N HCl at +4 °C for 18 h, followed by neutralization with 1/10 volume of 2 N NaOH. Samples were analyzed using 15% SDS-PAGE and Western blotting. […]

[2] = tested on: adult S. mansoni (Puerto Rican strain) worm pairs; settings: Puerto Rican strain; for lethality of adult worm pairs: 20 μM, by 72 h
schistosomula = tested on: schistosomula; parameters: method as in not given; settings: 48 h of treatment, 10–20 μM; ref not given; cited from earlier work
[3] = tested on: adult S. mansoni (Puerto Rican strain) worm pairs; test: microbe, parasite or virus in culture; settings: Schistosoma mansoni, 24 h, read-out: mortality in adult worm pairs
[4] = MTT viability assay on BJ fibroblasts; settings: human
SmSirt2 = SmSirt2 (Schistosoma mansoni, UniProt T1VXA1); test: In vitro SmSirt2 inhibition assay, homogeneous fluorescence-based, ZMAL substrate; format: biochemical
Experimental: We first improved the synthetic method to obtain most of the BDFs analogues 1–12 (Figure ), and we tested them against recombinant SmSirt2 using a homogeneous, fluorescent-based in vitro assay with (Z)-(Ac)-Lys-7-amino-4-methylcoumarin (ZMAL) as the substrate.
The BDF4 compounds 1–12 were tested for their inhibitory activity against SmSirt2 using a fluorescence-based assay with ZMAL as the substrate. Their activity against hSirt2 has been previously reported. ,
For the screening of compounds 1–12, a homogeneous fluorescence-based assay previously described by some of us was used to determine SmSirt2 activity.

[5] = tested on: S. mansoni (Puerto Rican) worm pairs; test: Egg laying by adult worm pairs (Puerto Rican strain); format: cell-based, Schistosoma mansoni; settings: % of DMSO control
[6] = tested on: adult S. mansoni (Liberian strain) worm pairs; test: Adult worm (Liberian strain) in vitro viability assay; format: cell-based, Schistosoma mansoni; settings: for adult worms' percentage of viability reduction, 72 h: SD in brackets; for IC50: Schistosoma mansoni, 72 h, Liberian strain
[7] = tested on: histone H3 / H4 acetylation in S. mansoni (Puerto Rican strain) worm pairs; test: Western blot of histone and lysine acetylation in worm extracts; format: cell-based, Schistosoma mansoni; settings: 10 μM, 48 h; histone-enriched fraction
[8] = tested on: S. mansoni newly transformed schistosomula (NTS), Liberian strain; test: NTS (Liberian strain) in vitro viability assay; format: cell-based, Schistosoma mansoni; settings: for percentage of reduction of NTS viability, 72 h: SD in brackets; for IC50: 72 h, Liberian strain
[9] = tested on: S. mansoni (Puerto Rican) worm pairs; test: Worm pairing of adult worm pairs (Puerto Rican strain); format: cell-based, Schistosoma mansoni; settings: % of DMSO control
hSirt2 = settings: ref footnote b (reference number not given); cited from earlier work
in vitro = settings: human

Chain of SmSirt2 (T1VXA1 entry or part of it): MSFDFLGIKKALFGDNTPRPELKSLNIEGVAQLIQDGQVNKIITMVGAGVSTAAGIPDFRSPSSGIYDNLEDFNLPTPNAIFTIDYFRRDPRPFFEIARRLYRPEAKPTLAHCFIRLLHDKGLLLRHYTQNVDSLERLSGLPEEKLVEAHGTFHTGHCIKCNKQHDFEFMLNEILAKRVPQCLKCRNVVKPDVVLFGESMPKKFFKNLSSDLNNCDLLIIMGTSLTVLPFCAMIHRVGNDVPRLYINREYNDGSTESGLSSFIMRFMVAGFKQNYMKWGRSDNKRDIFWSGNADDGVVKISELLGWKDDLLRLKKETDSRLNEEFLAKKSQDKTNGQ

## CC(C(=O)Nc1cccc(/N=C/c2c(O)ccc3ccccc23)c1)c1ccccc1 (stereo not shown) [salermide]
[1]
  cytosolic cytochrome c level: increased levels of cytochrome c
[2]; after 72 h, same conditions
  effect on adult worm viability: did not affect adult worm viability
schistosomula
  DNA fragmentation in schistosomula (TUNEL assay): cause DNA fragmentation

## O=c1nc2oc3ccc4ccccc4c3cc-2c(=O)n1Cc1ccccc1 [Compound 9, 10-Benzyl-9H-benzo[5,6]chromeno[2,3-d]pyrimidine-9,11(10H)-dione]
[3]
  mortality at 20 µM: 70 to 80%
[4]
  IC50 at 72 h: 50.6 µM
SmSirt2; read-out: IC50 SmSirt2, ZMAL substrate
  IC50: 7.3 ± 0.5 µM
[5]; 1 μM, 24 h, single experiment
  % egg laying: 98%
[5]; 1 μM, 48 h, single experiment
  % egg laying: 98%
[5]; 1 μM, 72 h, single experiment
  % egg laying: 126%
[5]; 10 μM, 24 h, SD in brackets
  % egg laying: 72 (74) %
[5]; 10 μM, 48 h, SD in brackets
  % egg laying: 71 (36) %
[5]; 10 μM, 72 h, SD in brackets
  % egg laying: 67 (28) %
[5]; 20 μM, 24 h, SD in brackets
  % egg laying: 11 (7) %
[5]; 20 μM, 48 h, SD in brackets
  % egg laying: 8 (5) %
[5]; 20 μM, 72 h, SD in brackets
  % egg laying: 7 (6) %
[6]; 20 μM
  adult worms' percentage of viability reduction, 72 h: 61.2 (5.6) %
[6]
  IC50: < 1 µM
[7]
  acetylation of histone H3 (pan-acetylation): increase in acetylation of histone H3
  acetylation of histone H4 (pan-acetylation): but not histone H4
[8]; 0.1 μM
  percentage of reduction of NTS viability, 72 h: 36 (2) %
[8]; 1 μM
  percentage of reduction of NTS viability, 72 h: 100 (0) %
[8]; 10 μM
  percentage of reduction of NTS viability, 72 h: 100 (0) %
[8]; 20 μM
  percentage of reduction of NTS viability, 72 h: 100 (0) %
[8]
  IC50: 0.11 µM
[8]; Schistosoma mansoni
  IC50: ~0.1 µM
[2]
  lethality of adult worm pairs: complete lethality
[9]; 1 μM, 24 h, single experiment
  % worm pairing: 100%
[9]; 1 μM, 48 h, single experiment
  % worm pairing: 100%
[9]; 1 μM, 72 h, single experiment
  % worm pairing: 100%
[9]; 10 μM, 24 h, SD in brackets
  % worm pairing: 80 (20) %
[9]; 10 μM, 48 h, SD in brackets
  % worm pairing: 93 (11) %
[9]; 10 μM, 72 h, SD in brackets
  % worm pairing: 100 (0) %
[9]; 20 μM, 24 h, SD in brackets
  % worm pairing: 6 (11) %
[9]; 20 μM, 48 h, SD in brackets
  % worm pairing: 20 (30) %
[9]; 20 μM, 72 h, SD in brackets
  % worm pairing: 20 (30) %
hSirt2
  IC50: 15.9 ± 0.6 µM

## O=c1nc2oc3ccc4ccccc4c3cc-2c(=O)n1C1CCCCC1 [Compound 7, 10-Cyclohexyl-9H-benzo[5,6]chromeno[2,3-d]pyrimidine-9,11(10H)-dione]
[3]
  mortality at 20 µM: 70 to 80%
[4]
  IC50 at 72 h: 60 µM
SmSirt2
  inhibition at 50 µM: 24.6%
[5]; 1 μM, 24 h, single experiment
  % egg laying: 75%
[5]; 1 μM, 48 h, single experiment
  % egg laying: 66%
[5]; 1 μM, 72 h, single experiment
  % egg laying: 75%
[5]; 10 μM, 24 h, SD in brackets
  % egg laying: 32 (4) %
[5]; 10 μM, 48 h, SD in brackets
  % egg laying: 46 (6) %
[5]; 10 μM, 72 h, SD in brackets
  % egg laying: 44 (10) %
[5]; 20 μM, 24 h, SD in brackets
  % egg laying: 14 (12) %
[5]; 20 μM, 48 h, SD in brackets
  % egg laying: 9 (8) %
[6]; 1 μM
  adult worms' percentage of viability reduction, 72 h: 23.9 (0) %
[6]; 20 μM
  adult worms' percentage of viability reduction, 72 h: 100 (0) %
[6]
  IC50: 1.24 µM
[7]
  acetylation of histone H3 (pan-acetylation): increase in acetylation of histone H3
  acetylation of histone H4 (pan-acetylation): but not histone H4
[8]; 0.1 μM
  percentage of reduction of NTS viability, 72 h: 43.8 (2.1) %
[8]; 1 μM
  percentage of reduction of NTS viability, 72 h: 67.7 (0) %
[8]; 10 μM
  percentage of reduction of NTS viability, 72 h: 100 (0) %
[8]; 20 μM
  percentage of reduction of NTS viability, 72 h: 100 (0) %
[8]
  IC50: 0.21 µM
[8]; Schistosoma mansoni
  IC50: ~0.2 µM
[2]
  lethality of adult worm pairs: complete lethality
[9]; 1 μM, 24 h, single experiment
  % worm pairing: 100%
[9]; 1 μM, 48 h, single experiment
  % worm pairing: 100%
[9]; 1 μM, 72 h, single experiment
  % worm pairing: 100%
[9]; 10 μM, 24 h, SD in brackets
  % worm pairing: 100 (0) %
[9]; 10 μM, 48 h, SD in brackets
  % worm pairing: 100 (0) %
[9]; 10 μM, 72 h, SD in brackets
  % worm pairing: 100 (0) %
[9]; 20 μM, 24 h, SD in brackets
  % worm pairing: 0 (0) %
[9]; 20 μM, 48 h, SD in brackets
  % worm pairing: 0 (0) %
[9]; 20 μM, 72 h, SD in brackets
  % worm pairing: 6 (11) %
hSirt2
  IC50: 58.5 ± 2.9 µM

## CC(C)=CCC[C@]1(C)C=Cc2c(O)c3c(c(CC=C(C)C)c2O1)O[C@]12C(=C[C@@H]4C[C@H]1C(C)(C)O[C@@]2(C/C=C(/C)C(=O)O)C4=O)C3=O [GA, gambogic acid]
In vitro
  IC50 at 72 h: 0.34 µM

Source: PMC12624727, “Benzodeazaoxaflavin Sirtuin Inhibitors Inhibit Schistosoma mansoni Sirt2 and Cause Phenotypic Changes and Lethality in Schistosomula and Adult Worm Stages” (ACS Infectious Diseases, 2025)
